The values below come from paper PMC4942819 (Scientific Reports, 2016).

The subject of one experiment is M. tuberculosis H37Rv. As to the kind of experiment: MABA checkerboard synergy assay. In kind it is cell-based, Mycobacterium tuberculosis. The conditions noted are these: for MIC: Mycobacterium tuberculosis, H37RV, 336 h, checkerboard, drug alone, read-out: MIC against H37Rv, MIC alone.
The subject of another experiment is XDR-TB clinical isolates. In words: microbe, parasite or virus in culture. In kind it is cell-based, Mycobacterium tuberculosis. The conditions noted are these: for MIC, XDR-TB strain X15 / MIC, XDR-TB strain X17: clinical isolate, Table 2 prints no unit, test range 0.0156 to 64 μg/mL; for MIC: Mycobacterium tuberculosis.
For a further experiment, the system named is Vero cells. In words: cytotoxicity, MTT assay. In kind it is cell-based. The conditions noted are these: Chlorocebus sabaeus, Vero; cytotoxicity; read-out: IC50 Vero. As for the experimental part: The compounds were examined for toxicity (IC50) using MTT assay. Briefly, cells (3 ~ 5 × 10^3 cells/well) were seeded in a 96-well plate. After 24 h incubation, the cells were treated with various concentrations of drugs for 24, 48, 72 h, respectively. Columns one and two in the assay plates contained-media +0.1% DMSO for a negative control ,Then, 20 μl of a 5 mg/mL MTT solution was added to each well, and the plates were incubated for an additional 2~4 h at 37 °C. The medium was subsequently discarded, and DMSO 150 μL was added to dissolve the formazan. Oscillate 15 min, the OD 570 was measured using a Spectra MAX M5 microplate spectrophotometer (Molecular Devices, CA, USA), and the IC50 values were calculated.
Compound MIC was conducted by ShangHai Chempartner Co., Ltd (Shanghai, China) using the microplate Alamar Blue assay (MABA) against Mycobacterium tuberculosis H37Ra (ATCC 25177). Cytotoxicity of tested compounds was assessed on Vero cells.
In general terms: Tetrazolium dyes change colour on reduction, which living cells bring about.

The subject of another experiment is Mycobacterium avium. As to the kind of experiment: microdilution plate assay, MIC. In kind it is cell-based. A general note: Dilution methods test growth across graded concentrations, often in twofold steps.
Experiment [1] concerns Mycobacterium tuberculosis H37Rv. In words: microplate Alamar blue assay (MABA), MIC. In kind it is cell-based. The conditions noted are these: replicating H37Rv. (Resazurin is reduced to fluorescent resorufin, in cell work by metabolically active cells.)
Another experiment deals with MDR-TB clinical isolates. In words: microbe, parasite or virus in culture. Type of experiment: cell-based. The conditions noted are these: Mycobacterium tuberculosis.
For experiment [2], the system named is M. tuberculosis Erdman in J774A.1 cells. In words: macrophage assay, intracellular activity. Type of experiment: cell-based, Mycobacterium tuberculosis. As for the experimental part: As described previously, J774A.1 cells were grown in 75-cm2 cell culture flasks in 10% FBS in Dulbecco’s modified Eagle’s medium (DMEM) until confluency. The cells were detached using a cell scraper, and then centrifuged at 200 g for 5 min at room temperature. The cells were incubated at 37 °C under 5% CO2 for 16 h after distributing into 24-well plates containing coverslips. M. tuberculosis Erdman (ATCC 35801) were diluted to a final concentration of 1 × 10^5 to 3 × 10^5 CFU/mL with DMEM after thawing and sonicating from frozen cultures. And 500 ul of the dilution was dispensed to each well of a new 24-well plate. Followed by, J774A.1 cells on coverslips were infected by incubation with M. tuberculosis Erdman at 37 °C for 2 h. Coverslips were then washed with HBSS and transferred to new 24-well plates. The Cultures were treated in triplicate with compounds at 0.02 μM containing DMEM and incubated at 37 °C under 5% CO2 for 16 h. At D 0 (for untreated controls) and after 7 days of incubation, macrophage cells were lysed by addition of 200 μL of 0.25% sodium dodecyl sulfate. The plates were incubated at 37 °C for 10 min, and 200 μL of DMEM was added. The lysate was sampled using a microtube and sonicated for 15 s. Then 1:1, 1:10, 1:100, and 1:1,000 dilutions were plated on 7H11 agar plates and CFU counts determined after 2 to 3 weeks of incubation at 37 °C.

The test system of a further experiment is M. tuberculosis Erdman. In words: in vivo acute M.tb Erdman infection mouse model. More on the design: species or system Mycobacterium tuberculosis. The conditions noted are these: BALB/c mice.
Experiment [3] deals with Mycobacterium tuberculosis Erdman. In words: microplate Alamar blue assay (MABA), MIC. In kind it is cell-based.
Where [4] appears, read: read-out: MIC, XDR-TB strain X15.
Setting [5] is: read-out: MIC, XDR-TB strain X17.
Setting [6] is: read-out: MIC, MDR-TB strain M3.
Setting [7] is: read-out: MIC, MDR-TB strain M4.
The mark [8] stands for this setting: read-out: MIC, MDR-TB strain M8.
Setting [9] is: read-out: MIC, MDR-TB strain M18.

What is called IC50 is the concentration at which inhibition is half-maximal.

SMILES strings stand for the structures. Converted amounts (≈) assume the structure as drawn. Read-outs that look alike come from different tables or passages of the source.

With `CC(=O)NC[C@H]1CN(c2ccc(N3CCOCC3)c(F)c2)C(=O)O1` [LZD, Linezolid], the MIC in the experiment with M. tuberculosis H37Rv was 0.145 µg/mL. The “MIC against H37Rv, MIC in combo.” value with M. tuberculosis H37Rv (in combination with TB1001) worked out at 0.1 µg/mL.

Take `C[C@H]1COc2c(N3CCN(C)CC3)c(F)cc3c(=O)c(C(=O)O)cn1c23` [LVFX, levo-ofloxacin]: in the experiment on XDR-TB clinical isolates, the “MIC, XDR-TB strain X15” value was 4 µg/mL (≈ 11.1 µM) and the “MIC, XDR-TB strain X17” value came to 32 µg/mL (≈ 88.6 µM).

In the case of `NNC(=O)c1ccncc1` [INH, isoniazid], the IC50 with Vero cells is greater than 100 µg/mL. Also, the MIC with XDR-TB clinical isolates (setting [4]) is 16 µg/mL (≈ 117 µM); with XDR-TB clinical isolates (setting [5]) it was 1 µg/mL (≈ 7.29 µM); in the experiment with M. tuberculosis H37Rv, 0.03 µg/mL; against Mycobacterium avium, 16 µg/mL (≈ 117 µM); in [1], 0.47 µg/mL (≈ 3.43 µM); with MDR-TB clinical isolates (setting [6]), 8 µg/mL (≈ 58.3 µM). The MIC amounted to 1 µg/mL (≈ 7.29 µM) with MDR-TB clinical isolates (setting [7]), 4 µg/mL (≈ 29.2 µM) with MDR-TB clinical isolates (setting [8]) and 1 µg/mL (≈ 7.29 µM) in the experiment with MDR-TB clinical isolates (setting [9]). The “MIC against H37Rv, MIC in combo.” value in the experiment on M. tuberculosis H37Rv (in combination with TB1001) was found to be 0.01 µg/mL.

`[H]/N=C(/N)N[C@H]1[C@H](O)[C@@H](O)[C@H](O[C@@H]2O[C@@H](C)[C@](O)(C=O)[C@H]2O[C@@H]2O[C@@H](CO)[C@H](O)[C@@H](O)[C@@H]2NC)[C@@H](N/C(N)=N\[H])[C@@H]1O` [SM, streptomycin]: the MIC is 8 µg/mL (≈ 13.8 µM) in the experiment with XDR-TB clinical isolates (setting [4]); 64 µg/mL (≈ 110 µM) with XDR-TB clinical isolates (setting [5]); 64 µg/mL (≈ 110 µM) in the experiment with MDR-TB clinical isolates (setting [6]); 8 µg/mL (≈ 13.8 µM) with MDR-TB clinical isolates (setting [7]); 64 µg/mL (≈ 110 µM) in the experiment with MDR-TB clinical isolates (setting [8]); 64 µg/mL (≈ 110 µM) in the experiment with MDR-TB clinical isolates (setting [9]).

Turning to `NC[C@H]1O[C@H](O[C@H]2[C@H](O)[C@@H](O[C@H]3O[C@H](CO)[C@@H](O)[C@H](N)[C@H]3O)[C@H](N)C[C@@H]2N)[C@H](O)[C@@H](O)[C@@H]1O` [KM, kanamycin], in the experiment on XDR-TB clinical isolates, the “MIC, XDR-TB strain X15” value turned out to be 64 µg/mL (≈ 132 µM) and the “MIC, XDR-TB strain X17” value came to 64 µg/mL (≈ 132 µM).

Consider `COc1c(N2C[C@@H]3CCCN[C@@H]3C2)c(F)cc2c(=O)c(C(=O)O)cn(C3CC3)c12` [MOX, moxifloxacin], for which, in the experiment with M. tuberculosis H37Rv, the MIC amounted to 0.037 µg/mL. The “MIC against H37Rv, MIC in combo.” value in the experiment with M. tuberculosis H37Rv (in combination with TB1001) was found to be 0.021 µg/mL.

Consider `CC1COc2c(N3CCN(C)CC3)c(F)cc3c(=O)c(C(=O)O)cn1c23` (stereo not drawn) [OFLX, ofloxacin], for which the MIC in the experiment on XDR-TB clinical isolates (setting [4]) amounted to 8 µg/mL (≈ 22.1 µM); in the experiment with XDR-TB clinical isolates (setting [5]), 32 µg/mL (≈ 88.6 µM).

As to `CO[C@H]1/C=C/O[C@@]2(C)Oc3c(C)c(O)c4c(O)c(c(/C=N/N5CCN(C)CC5)c(O)c4c3C2=O)NC(=O)/C(C)=C\C=C\[C@H](C)[C@H](O)[C@@H](C)[C@@H](O)[C@@H](C)[C@H](OC(C)=O)[C@@H]1C` [RMP, rifampicin], in experiment [2] (J774A.1 macrophages, 0.02 μM (Fig. 2 legend: 0.02 μg/mL), 7 days), the “Log10 CFU, intracellular Mtb Erdman” value is given as 6.44. Also, in experiment [2] (decrease of log10 CFU between D7 and treatment group, J774A.1, 0.02 μM (Fig. 2 legend: 0.02 μg/mL)), the “Fold(log) reduction” value is reported as 0.41 log. Besides, the MIC with XDR-TB clinical isolates (setting [4]), in the experiment on XDR-TB clinical isolates (setting [5]), in the experiment on MDR-TB clinical isolates (setting [6]), with MDR-TB clinical isolates (setting [7]), in the experiment on MDR-TB clinical isolates (setting [8]) and in the experiment with MDR-TB clinical isolates (setting [9]) was 64 µg/mL (≈ 77.8 µM) throughout. Moreover, the “reduction of bacterial concentration in lungs compared to vehicle control group” value with M. tuberculosis Erdman (15 mg/kg oral) is reported as 2.5 logs. Moreover, in the experiment with M. tuberculosis Erdman (Day-36, 15 mg/kg oral daily from day 10), the “Log10 CFU (SD), bacterial burden in mouse lungs” value is 3.73 (3.19). Moreover, the figures for the “MIC against H37Rv, MIC in combo.” value in the experiment on M. tuberculosis H37Rv (in combination with BTZ043) and in the experiment with M. tuberculosis H37Rv (in combination with TB1001) were 0.007 µg/mL and 0.001 µg/mL, respectively. For the same compound, the “decrease of MIC” value in the experiment on M. tuberculosis H37Rv (in the presence of SKLB-TB1001) is recorded as 6 fold.

Consider `CC[C@@H](CO)NCCN[C@@H](CC)CO` [EMB, ethambutol], for which the MIC in the experiment with XDR-TB clinical isolates (setting [4]) turned out to be 16 µg/mL (≈ 78.3 µM); with XDR-TB clinical isolates (setting [5]) it was 16 µg/mL (≈ 78.3 µM); with MDR-TB clinical isolates (setting [6]), 4 µg/mL (≈ 19.6 µM); in the experiment on MDR-TB clinical isolates (setting [7]), 2 µg/mL (≈ 9.79 µM); in the experiment on MDR-TB clinical isolates (setting [8]), 4 µg/mL (≈ 19.6 µM); with MDR-TB clinical isolates (setting [9]), 8 µg/mL (≈ 39.2 µM).

As to `O=c1nc(N2CCN(CC3CCCCC3)CC2)sc2c([N+](=O)[O-])cc(C(F)(F)F)cc12` [PBTZ169], the IC50 with Vero cells was greater than 100 µg/mL. The MIC in [1] was 0.02 µg/mL (≈ 0.0438 µM); in [3] it was no more than 0.05 µg/mL.

Take `NCC[C@H](O)C(=O)N[C@@H]1C[C@H](N)[C@@H](O[C@H]2O[C@H](CN)[C@@H](O)[C@H](O)[C@H]2O)[C@H](O)[C@H]1O[C@H]1O[C@H](CO)[C@@H](O)[C@H](N)[C@H]1O` [AMK, amikacin]: the MIC in the experiment on XDR-TB clinical isolates (setting [4]) and in the experiment with XDR-TB clinical isolates (setting [5]) was 64 µg/mL (≈ 109 µM) in each case.
